Test results: US10233182B2, “Substituted spirocyclic inhibitors of autotaxin” (X-Rx, Inc., priority 2014, dated 2019)
Where a name gives a salt, the structure may show the parent alone.

Target: Autotaxin (Homo sapiens (Human), UniProt Q13822)
Test: Autotaxin LPC Cascade Assay
Format: biochemical
Details: Autotaxin 5 nM, LPC 100 μM, choline oxidase/HRP/Ampliflu Red fluorescence read-out, 2% DMSO, RT; read-out: IC50 ATX Activity
Procedure, shortened: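 Choline liberated from LPC by autotaxin during 1 h, after a 10-min RT compound preincubation, was converted through choline oxidase/HRP to a fluorescent Ampliflu Red product.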

SMILES	IC50 [nM]
CC(C)[C@@H](NC(=O)c1cc(C(F)(F)F)ccc1F)C(=O)N1CCC2(CC1)C(=O)N(C)[C@H](C)N2c1ccc(C(=O)O)cc1 [Example 212, 4-((R)-8-((R)-2-(2-Fluoro-5-(trifluoromethyl)benzamido)-3-methylbutanoyl)-2,3-dimethyl-4-oxo-1,3,8-triazaspiro[4.5]decan-1-yl)benzoic Acid]	< 500
CC(C)[C@@H](NC(=O)c1cc(C(F)(F)F)ccc1F)C(=O)N1CCC2(CC1)C(=O)N(C)[C@@H](C)N2c1ccc(C(=O)O)cc1 [Example 213, 4-((S)-8-((R)-2-(2-Fluoro-5-(trifluoromethyl)benzamido)-3-methylbutanoyl)-2,3-dimethyl-4-oxo-1,3,8-triazaspiro[4.5]decan-1-yl)benzoic Acid]	< 500
CC(C)[C@@H](NC(=O)c1cc(C(F)(F)F)ccc1F)C(=O)N1CCC2(CC1)C(=O)N(C)CN2c1ccc2[nH]ncc2c1 [Example 214, (R)—N-(1-(1-(1H-Indazol-5-yl)-3-methyl-4-oxo-1,3,8-triazaspiro[4.5]decan-8-yl)-3-methyl-1-oxobutan-2-yl)-2-fluoro-5-(trifluoromethyl)benzamide]	< 500
CCc1ccc(F)c(C(=O)N[C@@H](C(=O)N2CCC3(CC2)C(=O)N(C)CN3c2ccc3[nH]ncc3c2)C(C)C)c1 [Example 215, (R)—N-(1-(1-(1H-Indazol-5-yl)-3-methyl-4-oxo-1,3,8-triazaspiro[4.5]decan-8-yl)-3-methyl-1-oxobutan-2-yl)-5-ethyl-2-fluorobenzamide]	< 500
CCc1ccc(F)c(C(=O)N[C@@H](C(=O)N2CCC3(CC2)C(=O)N(C)CN3c2ccc3nc[nH]c3c2)C(C)C)c1 [Example 216, (R)—N-(1-(1-(1H-Benzo[d]imidazol-6-yl)-3-methyl-4-oxo-1,3,8-triazaspiro[4.5]decan-8-yl)-3-methyl-1-oxobutan-2-yl)-5-ethyl-2-fluorobenzamide]	< 500
Cc1cccc(C(=O)N[C@@H](C(=O)N2CCC3(CC2)COC(=O)N3c2ccccc2)C(C)C)c1 [Example 217, (R)-3-Methyl-N-(3-methyl-1-oxo-1-(2-oxo-1-phenyl-3-oxa-1,8-diazaspiro[4.5]decan-8-yl)butan-2-yl)benzamide]	≥ 1000
CC(C)[C@@H](NC(=O)c1cc(C(F)(F)F)ccc1F)C(=O)N1CCC2(CC1)C(=O)N(C)CN2c1ccc(NC2COC2)cc1 [Example 218, (R)-2-Fluoro-N-(3-methyl-1-(3-methyl-1-(4-(oxetan-3-ylamino)phenyl)-4-oxo-1,3,8-triazaspiro[4.5]decan-8-yl)-1-oxobutan-2-yl)-5-(trifluoromethyl)benzamide]	< 500
COC1CC(CN2C(=O)N(C)C(=O)C23CCN(C(=O)[C@H](NC(=O)c2cc(C(F)(F)F)ccc2F)C(C)C)CC3)C1 (stereo partly drawn) [Example 219, (R)-2-Fluoro-N-(1-(1-((3-methoxycyclobutyl)methyl)-3-methyl-2,4-dioxo-1,3,8-triazaspiro[4.5]decan-8-yl)-3-methyl-1-oxobutan-2-yl)-5-(trifluoromethyl)benzamide]	≥ 1000
CC(C)[C@@H](NC(=O)c1cc(C(F)(F)F)ccc1F)C(=O)N1CCC2(CC1)C(=O)N(C)CN2c1ccc(-c2nc[nH]n2)cc1 [Example 220, (R)—N-(1-(1-(4-(1H-1,2,4-Triazol-3-yl)phenyl)-3-methyl-4-oxo-1,3,8-triazaspiro[4.5]decan-8-yl)-3-methyl-1-oxobutan-2-yl)-2-fluoro-5-(trifluoromethyl)benzamide]	< 500
COC(=O)c1ccc(N2C(=O)N(C)C(=O)C23CCN(C(=O)[C@H](NC(=O)c2cc(C(F)(F)F)ccc2F)C(C)C)CC3)cc1 [Example 221, (R)-Methyl-4-(8-(2-(2-fluoro-5-(trifluoromethyl)benzamido)-3-methylbutanoyl)-3-methyl-2,4-dioxo-1,3,8-triazaspiro[4.5]decan-1-yl)benzoate]	< 500
CC(C)[C@@H](NC(=O)c1cc(C2CC2)ccc1F)C(=O)N1CCC2(CC1)C(=O)N(C)C(=O)N2c1ccc(C(=O)O)cc1 [Example 222, (R)-4-(8-(2-(5-Cyclopropyl-2-fluorobenzamido)-3-methylbutanoyl)-3-methyl-2,4-dioxo-1,3,8-triazaspiro[4.5]decan-1-yl)benzoic Acid]	< 500
CC(C)[C@@H](NC(=O)c1cc(C(F)(F)F)ccc1F)C(=O)N1CCC2(CC1)C(=O)N(C)C(=O)N2c1ccc(C(=O)O)cc1 [Example 223, (R)-4-(8-(2-(2-Fluoro-5-(trifluoromethyl)benzamido)-3-methylbutanoyl)-3-methyl-2,4-dioxo-1,3,8-triazaspiro[4.5]decan-1-yl)benzoic Acid]	< 500
CC(C)[C@@H](NC(=O)c1cc(C(F)(F)F)ccc1F)C(=O)N1CCC2(CC1)C(=O)N(C)C(=O)N2c1ccc(-c2nn[nH]n2)cc1 [Example 224, (R)—N-(1-(1-(4-(2H-Tetrazol-5-yl)phenyl)-3-methyl-2,4-dioxo-1,3,8-triazaspiro[4.5]decan-8-yl)-3-methyl-1-oxobutan-2-yl)-2-fluoro-5-(trifluoromethyl)benzamide]	< 500
CC(C)[C@@H](NC(=O)c1cc(OC(F)(F)F)ccc1F)C(=O)N1CCC2(CC1)C(=O)N(C)C(=O)N2c1ccc(-c2nn[nH]n2)cc1 [Example 225, (R)—N-(1-(1-(4-(2H-Tetrazol-5-yl)phenyl)-3-methyl-2,4-dioxo-1,3,8-triazaspiro[4.5]decan-8-yl)-3-methyl-1-oxobutan-2-yl)-2-fluoro-5-(trifluoromethoxy)benzamide]	< 500
CC(C)[C@@H](NC(=O)c1cc(OC(F)F)ccc1F)C(=O)N1CCC2(CC1)C(=O)N(C)C(=O)N2c1ccc(-c2nn[nH]n2)cc1 [Example 226, (R)—N-(1-(1-(4-(2H-Tetrazol-5-yl)phenyl)-3-methyl-2,4-dioxo-1,3,8-triazaspiro[4.5]decan-8-yl)-3-methyl-1-oxobutan-2-yl)-5-(difluoromethoxy)-2-fluorobenzamide]	< 500
CC(C)[C@@H](NC(=O)c1cc(C(F)(F)F)ccc1F)C(=O)N1CCC2(CC1)C(=O)N(C)CN2c1ccc(-c2nn[nH]n2)cc1 [Example 227, (R)—N-(1-(1-(4-(2H-Tetrazol-5-yl)phenyl)-3-methyl-4-oxo-1,3,8-triazaspiro[4.5]decan-8-yl)-3-methyl-1-oxobutan-2-yl)-2-fluoro-5-(trifluoromethyl)benzamide]	< 500
CC(C)[C@@H](NC(=O)c1ccccn1)C(=O)N1CCC2(CC1)C(=O)N(C)C(=O)N2c1ccc2[nH]ncc2c1 [Example 228, (R)—N-(1-(1-(1H-Indazol-5-yl)-3-methyl-2,4-dioxo-1,3,8-triazaspiro[4.5]decan-8-yl)-3-methyl-1-oxobutan-2-yl)picolinamide]	≥ 1000
CC(C)[C@@H](NC(=O)c1cccnc1)C(=O)N1CCC2(CC1)C(=O)N(C)C(=O)N2c1ccc2[nH]ncc2c1 [Example 229, (R)—N-(1-(1-(1H-Indazol-5-yl)-3-methyl-2,4-dioxo-1,3,8-triazaspiro[4.5]decan-8-yl)-3-methyl-1-oxobutan-2-yl)nicotinamide]	≥ 1000
CC(C)[C@@H](NC(=O)C1CCCCC1)C(=O)N1CCC2(CC1)C(=O)N(C)C(=O)N2c1ccc2[nH]ncc2c1 [Example 230, (R)—N-(1-(1-(1H-Indazol-5-yl)-3-methyl-2,4-dioxo-1,3,8-triazaspiro[4.5]decan-8-yl)-3-methyl-1-oxobutan-2-yl)cyclohexanecarboxamide]	≥ 1000
CC(C)[C@@H](NC(=O)c1ccncc1)C(=O)N1CCC2(CC1)C(=O)N(C)C(=O)N2c1ccc2[nH]ncc2c1 [Example 231, (R)—N-(1-(1-(1H-Indazol-5-yl)-3-methyl-2,4-dioxo-1,3,8-triazaspiro[4.5]decan-8-yl)-3-methyl-1-oxobutan-2-yl)isonicotinamide]	≥ 1000
CC(C)[C@@H](NC(=O)C(C)(C)C)C(=O)N1CCC2(CC1)C(=O)N(C)C(=O)N2c1ccc2[nH]ncc2c1 [Example 232, (R)—N-(1-(1-(1H-Indazol-5-yl)-3-methyl-2,4-dioxo-1,3,8-triazaspiro[4.5]decan-8-yl)-3-methyl-1-oxobutan-2-yl)pivalamide]	≥ 1000
CC(C)[C@@H](NC(=O)c1ccccc1)C(=O)N1CCC2(CC1)C(=O)N(C)C(=O)N2c1ccc2[nH]ncc2c1 [Example 233, (R)—N-(1-(1-(1H-Indazol-5-yl)-3-methyl-2,4-dioxo-1,3,8-triazaspiro[4.5]decan-8-yl)-3-methyl-1-oxobutan-2-yl)benzamide]	≥ 1000
CC(C)[C@@H](NC(=O)c1nccs1)C(=O)N1CCC2(CC1)C(=O)N(C)C(=O)N2c1ccc2[nH]ncc2c1 [Example 234, (R)—N-(1-(1-(1H-Indazol-5-yl)-3-methyl-2,4-dioxo-1,3,8-triazaspiro[4.5]decan-8-yl)-3-methyl-1-oxobutan-2-yl)thiazole-2-carboxamide]	≥ 1000
CC(C)[C@@H](NC(=O)c1nc(C(F)(F)F)cs1)C(=O)N1CCC2(CC1)C(=O)N(C)C(=O)N2c1ccc2[nH]ncc2c1 [Example 235, (R)—N-(1-(1-(1H-Indazol-5-yl)-3-methyl-2,4-dioxo-1,3,8-triazaspiro[4.5]decan-8-yl)-3-methyl-1-oxobutan-2-yl)-4-(trifluoromethyl)thiazole-2-carboxamide]	≥ 1000
CC(C)[C@H](C(=O)N1CCC2(CC1)C(=O)N(C)C(=O)N2c1ccc2[nH]ncc2c1)N(C)C(=O)c1cc(C(F)(F)F)ccc1F [Example 236, (R)—N-(1-(1-(1H-Indazol-5-yl)-3-methyl-2,4-dioxo-1,3,8-triazaspiro[4.5]decan-8-yl)-3-methyl-1-oxobutan-2-yl)-2-fluoro-N-methyl-5-(trifluoromethyl)benzamide]	≥ 1000
CC(C)[C@@H](NC(=O)c1cc(C(F)(F)F)ccc1F)C(=O)N1CCC2(CC1)C(=O)N(CCN(C)C)C(=O)N2c1ccc(C(=O)O)cc1 [Example 237, (R)-4-(3-(2-(Dimethylamino)ethyl)-8-(2-(2-fluoro-5-(trifluoromethyl)benzamido)-3-methylbutanoyl)-2,4-dioxo-1,3,8-triazaspiro[4.5]decan-1-yl)benzoic Acid trifluoroacetic Acid Salt]	< 500
